Assay results reported in the NIST ThermoML archive (doi:10.1016/j.jct.2018.08.035).
Numbers after ± are expanded uncertainties.

Details: 298.15 K; 101.33 kPa; Liquid; Vibrating tube method

| SMILES | mass density |
| --- | --- |
| C[N+](=O)[O-] [nitromethane] | 1131.1 ± 2.3 kg/m3 |
| CCC(O)CC [3-pentanol] | 815.8 ± 1.7 kg/m3 |
